# Several values for one entry are separate records, joined by “and”; a condition that tells them apart may be missing. Identical values can stand only once.
# Assays:
# MOLM13 = experiment: Cell growth inhibition, CellTiter-Glo Luminescent Cell Viability Assay, MOLM13; assay type: cell-based; details: MOLM13 cells, 4 days
# Procedure: (§1) Cell growth inhibitory activity of representative Compounds of the Disclosure was determined using the CellTiter-Glo® Luminescent Cell Viability Assay. Cells were seeded in 384-well white opaque cell culture plates at a density of 2,000 cells/well with serially diluted compounds and incubated at 37° C. in an atmosphere of 95% air and 5% CO2 for 4 days. Cell viability was determined using the CellTiter-Glo® Luminescent Cell Viability Assay Kit (Promega, Madison, Wis.) according to the manufacture's instruction. Briefly, a volume of CellTiter-Glo® Reagent equal to the volume of cell culture medium was added to each well, and then the plates were incubated at room temperature for 10-20 minutes. The luminescent signal was measured using a Tecan Infinite M1000 multimode microplate reader (Tecan, Morrisville, N.C.). The half maximal inhibitory concentration (IC50) in Table 3 was calculated using the GraphPad Prism 5 software (GraphPad Software, La Jolla, Calif.).
# MDA-MB-231 = experiment: Cell growth inhibition, CellTiter-Glo Luminescent Cell Viability Assay, MDA-MB-231; assay type: cell-based; details: MDA-MB-231 cells, 4 days
# Procedure: as §1
SMILES,"IC50 (MOLM13; Homo sapiens, MOLM-13, 96 h)","IC50 (MDA-MB-231; Homo sapiens, MDA-MB-231, 96 h)",IC50 (MOLM13),IC50 (MDA-MB-231)
"Cc1c(C#Cc2cnn(CCCC(=O)OCCN3CCC(Nc4cccc5c4CN(C4CCC(=O)NC4=O)C5=O)CC3)c2)sc2c1C(c1ccc(Cl)cc1)=N[C@@H](C)c1nnc(C)n1-2 (stereo partly drawn) [Cpd. No. 11, 2-(4-((2-(2,6-dioxopiperidin-3-yl)-1-oxoisoindolin-4-yl)amino)piperidin-1-yl)ethyl 4-(4-(((S)-4-(4-chlorophenyl)-3,6,9-trimethyl-6H-thieno[3,2-f][1,2,4]triazolo[4,3-a][1,4]diazepin-2-yl)ethynyl)-1H-pyrazol-1-yl)butanoate]",0.06 nM,0.1 nM,,
"Cc1c(C#Cc2cnn(CCCC(=O)OCCOCCCN3CCC(Nc4cccc5c4CN(C4CCC(=O)NC4=O)C5=O)CC3)c2)sc2c1C(c1ccc(Cl)cc1)=N[C@@H](CC(=O)N1CCN(C)CC1)c1nnc(C)n1-2 (stereo partly drawn) [compound 2, 2-(3-(4-((2-(2,6-dioxopiperidin-3-yl)-1-oxoisoindolin-4-yl)amino)piperidin-1-yl)propoxy)ethyl 4-(4-(((S)-4-(4-chlorophenyl)-3,9-dimethyl-6-(2-(4-methylpiperazin-1-yl)-2-oxoethyl)-6H-thieno[3,2-f][1,2,4]triazolo[4,3-a][1,4]diazepin-2-yl)ethynyl)-1H-pyrazol-1-yl)butanoate]",7.5 nM,19.4 nM,,
"Cc1c(C#Cc2cnn(CC(=O)OCC#Cc3cccc4c3CN(C3CCC(=O)NC3=O)C4=O)c2)sc2c1C(c1ccc(Cl)cc1)=N[C@@H](C)c1nnc(C)n1-2 (stereo partly drawn) [compound 3, 3-(2-(2,6-dioxopiperidin-3-yl)-1-oxoisoindolin-4-yl)prop-2-yn-1-yl 2-(4-(((S)-4-(4-chlorophenyl)-3,6,9-trimethyl-6H-thieno[3,2-f][1,2,4]triazolo[4,3-a][1,4]diazepin-2-yl)ethynyl)-1H-pyrazol-1-yl)acetate]",,,1.8 nM,2.1 nM
"Cc1c(C#Cc2cnn(CCCC(=O)OCCOCCOCCOCC#Cc3cccc4c3CN(C3CCC(=O)NC3=O)C4=O)c2)sc2c1C(c1ccc(Cl)cc1)=N[C@@H](CC(=O)N1CCN(C)CC1)c1nnc(C)n1-2 (stereo partly drawn) [compound 6, 2-(2-(2-((3-(2-(2,6-dioxopiperidin-3-yl)-1-oxoisoindolin-4-yl)prop-2-yn-1-yl)oxy)ethoxy)ethoxy)ethyl 4-(4-(((S)-4-(4-chlorophenyl)-3,9-dimethyl-6-(2-(4-methylpiperazin-1-yl)-2-oxoethyl)-6H-thieno[3,2-f][1,2,4]triazolo[4,3-a][1,4]diazepin-2-yl)ethynyl)-1H-pyrazol-1-yl)butanoate]",2.8 nM,32 nM,,
"Cc1c(C#Cc2cnn(CCCC(=O)OCCCOCCN3CCC(Nc4cccc5c4CN(C4CCC(=O)NC4=O)C5=O)CC3)c2)sc2c1C(c1ccc(Cl)cc1)=N[C@@H](CC(=O)N1CCN(C)CC1)c1nnc(C)n1-2 (stereo partly drawn) [compound 7, 3-(2-(4-((2-(2,6-dioxopiperidin-3-yl)-1-oxoisoindolin-4-yl)amino)piperidin-1-yl)ethoxy)propyl 4-(4-(((S)-4-(4-chlorophenyl)-3,9-dimethyl-6-(2-(4-methylpiperazin-1-yl)-2-oxoethyl)-6H-thieno[3,2-f][1,2,4]triazolo[4,3-a][1,4]diazepin-2-yl)ethynyl)-1H-pyrazol-1-yl)butanoate]",9.6 nM,4.5 nM,,
"Cc1c(C#Cc2cnn(CCCC(=O)OCCCOCCN3CCC(Nc4cccc5c4CN(C4CCC(=O)NC4=O)C5=O)CC3)c2)sc2c1C(c1ccc(Cl)cc1)=N[C@@H](C)c1nnc(C)n1-2 (stereo partly drawn) [compound 8, 3-(2-(4-((2-(2,6-dioxopiperidin-3-yl)-1-oxoisoindolin-4-yl)amino)piperidin-1-yl)ethoxy)propyl 4-(4-(((S)-4-(4-chlorophenyl)-3,6,9-trimethyl-6H-thieno[3,2-f][1,2,4]triazolo[4,3-a][1,4]diazepin-2-yl)ethynyl)-1H-pyrazol-1-yl)butanoate]",1.1 nM,1.3 nM,,
"Cc1c(C#Cc2cnn(CCCC(=O)OCCN3CCC(Nc4cccc5c4CN(C4CCC(=O)NC4=O)C5=O)CC3)c2)sc2c1C(c1ccc(Cl)cc1)=N[C@@H](CC(=O)N1CCN(C)CC1)c1nnc(C)n1-2 (stereo partly drawn) [compound 12, 2-(4-((2-(2,6-dioxopiperidin-3-yl)-1-oxoisoindolin-4-yl)amino)piperidin-1-yl)ethyl 4-(4-(((S)-4-(4-chlorophenyl)-3,9-dimethyl-6-(2-(4-methylpiperazin-1-yl)-2-oxoethyl)-6H-thieno[3,2-f][1,2,4]triazolo[4,3-a][1,4]diazepin-2-yl)ethynyl)-1H-pyrazol-1-yl)butanoate]",0.05 nM,0.08 nM,,
"Cc1nnc2n1-c1sc(C#Cc3cnn(CCCC(=O)OCCOCCOCCOCCOc4cccc5c4CN(C4CCC(=O)NC4=O)C5=O)c3)c(Cc3ccccc3)c1COC2 (stereo not shown) [compound 22, 2-(2-(2-(2-((2-(2,6-dioxopiperidin-3-yl)-1-oxoisoindolin-4-yl)oxy)ethoxy)ethoxy)ethoxy)ethyl 4-(4-((3-benzyl-9-methyl-4H,6H-thieno[2,3-e][1,2,4]triazolo[3,4-c][1,4]oxazepin-2-yl)ethynyl)-1H-pyrazol-1-yl)butanoate]",5.2 nM,185 nM,,
"Cc1nnc2n1-c1sc(C#Cc3ccn(CCC(=O)OCCCCc4cccc5c4CN(C4CCC(=O)NC4=O)C5=O)n3)c(Cc3ccccc3)c1COC2 (stereo not shown) [compound 29, 4-(2-(2,6-dioxopiperidin-3-yl)-1-oxoisoindolin-4-yl)butyl 3-(3-((3-benzyl-9-methyl-4H,6H-thieno[2,3-e][1,2,4]triazolo[3,4-c][1,4]oxazepin-2-yl)ethynyl)-1H-pyrazol-1-yl)propanoate]",0.3 nM,9.8 nM,,

# Further lines, results first:
"IC50 (MOLM13; Homo sapiens, MOLM-13, 96 h)","IC50 (MDA-MB-231; Homo sapiens, MDA-MB-231, 96 h)",IC50 (MOLM13),IC50 (MDA-MB-231),SMILES
1.8 nM,39 nM,,,"Cc1nnc2n1-c1sc(C#Cc3cnn(CCCOC(=O)CCc4cccc5c4CN(C4CCC(=O)NC4=O)C5=O)c3)c(Cc3ccccc3)c1COC2 (stereo not shown) [compound 17, 3-(4-((3-benzyl-9-methyl-4H,6H-thieno[2,3-e][1,2,4]triazolo[3,4-c][1,4]oxazepin-2-yl)ethynyl)-1H-pyrazol-1-yl)propyl 3-(2-(2,6-dioxopiperidin-3-yl)-1-oxoisoindolin-4-yl)propanoate]"
2.1 nM,77.9 nM,,,"Cc1nnc2n1-c1sc(C#Cc3cnn(CCCC(=O)OCOCCCOc4cccc5c4CN(C4CCC(=O)NC4=O)C5=O)c3)c(Cc3ccccc3)c1COC2 (stereo not shown) [compound 23, (3-((2-(2,6-dioxopiperidin-3-yl)-1-oxoisoindolin-4-yl)oxy)propoxy)methyl 4-(4-((3-benzyl-9-methyl-4H,6H-thieno[2,3-e][1,2,4]triazolo[3,4-c][1,4]oxazepin-2-yl)ethynyl)-1H-pyrazol-1-yl)butanoate]"
2.4 nM,7.3 nM,,,"Cc1nnc2n1-c1sc(C#Cc3cnn(CCCC(=O)OCCCN4CCC(Nc5cccc6c5CN(C5CCC(=O)NC5=O)C6=O)CC4)c3)c(Cc3ccccc3)c1COC2 (stereo not shown) [compound 25, 3-(4-((2-(2,6-dioxopiperidin-3-yl)-1-oxoisoindolin-4-yl)amino)piperidin-1-yl)propyl 4-(4-((3-benzyl-9-methyl-4H,6H-thieno[2,3-e][1,2,4]triazolo[3,4-c][1,4]oxazepin-2-yl)ethynyl)-1H-pyrazol-1-yl)butanoate]"
0.2 nM,2 nM,,,"Cc1nnc2n1-c1sc(C#Cc3ccn(CCC(=O)OCCC#Cc4cccc5c4CN(C4CCC(=O)NC4=O)C5=O)n3)c(Cc3ccccc3)c1COC2 (stereo not shown) [compound 28, 4-(2-(2,6-dioxopiperidin-3-yl)-1-oxoisoindolin-4-yl)but-3-yn-1-yl 3-(3-((3-benzyl-9-methyl-4H,6H-thieno[2,3-e][1,2,4]triazolo[3,4-c][1,4]oxazepin-2-yl)ethynyl)-1H-pyrazol-1-yl)propanoate]"
0.6 nM,148 nM,,,"Cc1nnc2n1-c1sc(C#Cc3ccn(CCC(=O)OCCCNc4cccc5c4CN(C4CCC(=O)NC4=O)C5=O)n3)c(Cc3ccccc3)c1COC2 (stereo not shown) [compound 30, 3-((2-(2,6-dioxopiperidin-3-yl)-1-oxoisoindolin-4-yl)amino)propyl 3-(3-((3-benzyl-9-methyl-4H,6H-thieno[2,3-e][1,2,4]triazolo[3,4-c][1,4]oxazepin-2-yl)ethynyl)-1H-pyrazol-1-yl)propanoate]"
1.3 nM,,,9.1 nM and 5.6 nM,"Cc1nnc2n1-c1sc(C#Cc3cnn(CCOC(=O)CCC#Cc4cccc5c4CN(C4CCC(=O)NC4=O)C5=O)c3)c(Cc3ccccc3)c1COC2 (stereo not shown) [compound 31, 2-(4-((3-benzyl-9-methyl-4H,6H-thieno[2,3-e][1,2,4]triazolo[3,4-c][1,4]oxazepin-2-yl)ethynyl)-1H-pyrazol-1-yl)ethyl 5-(2-(2,6-dioxopiperidin-3-yl)-1-oxoisoindolin-4-yl)pent-4-ynoate]"
0.6 nM,25.8 nM,,,"Cc1nnc2n1-c1sc(C#Cc3cnn(CCOC(=O)CCCCc4cccc5c4CN(C4CCC(=O)NC4=O)C5=O)c3)c(Cc3ccccc3)c1COC2 (stereo not shown) [compound 32, 2-(4-((3-benzyl-9-methyl-4H,6H-thieno[2,3-e][1,2,4]triazolo[3,4-c][1,4]oxazepin-2-yl)ethynyl)-1H-pyrazol-1-yl)ethyl 5-(2-(2,6-dioxopiperidin-3-yl)-1-oxoisoindolin-4-yl)pentanoate]"
,,1.6 nM,35.6 nM,"Cc1nnc2n1-c1sc(C#Cc3cnn(CCOC(=O)CCC#Cc4cccc5c4CN(C4CCC(=O)NC4=O)C5=O)c3)c(Cc3ccccc3)c1COC2 (stereo not shown) [compound 33, 2-(4-((3-benzyl-9-methyl-4H,6H-thieno[2,3-e][1,2,4]triazolo[3,4-c][1,4]oxazepin-2-yl)ethynyl)-1H-pyrazol-1-yl)ethyl 5-(2-(2,6-dioxopiperidin-3-yl)-1-oxoisoindolin-4-yl)pent-4-ynoate]"

# Reference: patent publication US11267822B2, “BET bromodomain protein degraders with cleavable linkers” (THE REGENTS OF THE UNIVERSITY OF MICHIGAN, priority 2017, dated 2022)
